The subject of one experiment is Proteus miravilis GN2425. The experiment in a line: minimal inhibitory concentration, agar dilution method. The class given is cell-based.
The test system of a further experiment is Escherichia coli NIHJ. The description is as above. It is filed as cell-based. An excerpt: (§1) When determined according to the agar dilution method, the penicillins (I) afford the minimal inhibitory concentrations against test microorganisms as shown in Table 2.
Experiment [1] concerns Staphylococcus aureus 209P. The description is as above. It is filed as cell-based.
Excerpt: as §1

The subject of experiment [2] is Pseudomonas aeruginosa 104. Described as above. The class given is cell-based.
Excerpt: as §1

The next experiment concerns Proteus vulgaris HV19. The experiment is described as above. The class given is cell-based.
The next experiment deals with Pseudomonas. Particulars: known penicillins and N-acyl ampicillins; cited from earlier work.
For experiment [3], the system named is gram-positive and gram-negative bacteria. Particulars: known penicillins and N-acyl ampicillins; cited from earlier work.
Experiment [4] concerns Klebsiella pneumoniae PCI602. Briefly: minimal inhibitory concentration, agar dilution method. The class given is cell-based.
Excerpt: as §1

Converted amounts (≈) assume the structure as drawn. A value given as a limit tells only on which side of the number the result lay.

As for `CC1(C)S[C@@H]2C(NC(=O)C(N)c3ccc(O)cc3)C(=O)N2[C@H]1C(=O)O` (stereo partly drawn) [Amoxycillin, 6-(α-amino-p-hydroxyphenylacetamido)penicillanic acid, reference compound], the MIC against Proteus miravilis GN2425 was 3.13 µg/mL (≈ 8.57 µM); in the experiment on Escherichia coli NIHJ, 12.5 µg/mL (≈ 34.2 µM); in experiment [1], 0.2 µg/mL (≈ 0.547 µM); in experiment [2], > 200 µg/mL; in the experiment with Proteus vulgaris HV19 it was 12.5 µg/mL (≈ 34.2 µM). Further, the “antimicrobial activity against Pseudomonas” value in the experiment on Pseudomonas is recorded as “do not exert any appreciable antimicrobial activity against Pseudomonas”. Moreover, the “growth inhibition / antimicrobial activity against gram-positive and gram-negative bacteria” value in experiment [3] was “inhibit the growth of various gram-positive and gram-negative bacteria”.
For `CC1(C)S[C@@H]2[C@H](NC(=O)[C@H](N)C3=CCC=CC3)C(=O)N2[C@H]1C(=O)O` [Epicillin, 6-[α-amino-2-(1,4-hexadienylacetamido)]penicillanic acid], the “antimicrobial activity against Pseudomonas” value in the experiment on Pseudomonas was “do not exert any appreciable antimicrobial activity against Pseudomonas”. In addition, in experiment [3], the “growth inhibition / antimicrobial activity against gram-positive and gram-negative bacteria” value was “inhibit the growth of various gram-positive and gram-negative bacteria”.
With `CC1(C)S[C@@H]2[C@H](NC(=O)C(NC(=O)c3ccccn3)c3ccccc3)C(=O)N2[C@H]1C(=O)O` (some centres unmarked) [R, reference compound], the MIC against Proteus miravilis GN2425 came out at 50 µg/mL (≈ 110 µM); in the experiment with Escherichia coli NIHJ, 100 µg/mL (≈ 220 µM); in experiment [1], 0.78 µg/mL (≈ 1.72 µM); in experiment [4], 50 µg/mL (≈ 110 µM); in experiment [2], 50 µg/mL (≈ 110 µM).

Source of the values: patent US3954733A, “Naphthyridine-3-carboxamido-benzylpenicillins and salts thereof” (Sumitomo Chemical Company, Limited, priority 1973, dated 1976).
